Among the data in publication PMC9696374, “Antiandrogenic Effects of a Polyphenol in Carex kobomugi through Inhibition of Androgen Synthetic Pathway and Downregulation of Androgen Receptor in Prostate Cancer Cell Lines” (International Journal of Molecular Sciences, 2022) are IC50 values, retold here.

For this assay, the target named is T1, dehydrogenase/reductase SDR family member 11 (DHRS11) (Homo sapiens, UniProt Q6UWP2).
T1 construct: Homogenous recombinant DHRS11
T1 sequence (Q6UWP2 31-260): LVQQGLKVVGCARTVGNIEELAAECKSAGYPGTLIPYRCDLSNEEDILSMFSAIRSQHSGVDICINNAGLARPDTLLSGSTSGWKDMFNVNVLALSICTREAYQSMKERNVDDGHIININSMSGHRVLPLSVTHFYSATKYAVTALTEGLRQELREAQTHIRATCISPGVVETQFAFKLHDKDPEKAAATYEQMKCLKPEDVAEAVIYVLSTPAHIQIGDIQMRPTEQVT
Put plainly: reductase activity of recombinant DHRS11, NADPH absorbance at […] nm, isatin substrate. The format is biochemical.

As to `Cc1c(O)cc(O)c2c(=O)cc(/C=C/c3ccc(O)cc3)oc12` [VI, 5,7-dihydroxy-8-methyl-2-[2-(4-hydroxyphenyl)ethenyl]-4H-1-benzopyran-4-one], the IC50 – broadly, the concentration that gives 50% inhibition – came out at 350 ± 30 nM.
